Test results from ChEMBL document CHEMBL6182898, “Design, synthesis and bioevaluation of novel hydrazide derivatives as enhancers of immunotherapy and DNA-damage response in antitumor therapy” (Eur J Med Chem, 2025).
The source made the active and inactive calls. The rule behind the calls is not given here.

Tests used:
B16-F10 [1] = test: Induction of antitumor immunity in mouse B16-F10 cells implanted in male C57BL/6J mouse assessed as CD3+CD4+ T cell infiltration at 25 mg/kg, IG treated for 14 days consecutively in presence of NP-19 by flow cytometry (reference value: 7.4 %); format: functional; details: time 14 day
4T1 [2] = test: Synergistic induction of DNA damage in mouse 4T1 cells implanted in mouse assessed as increase in gamma-H2AX level at 25 mg/kg/day in presence of olaparib by immunofluorescence based analysis; format: functional, organism-based
4T1 [3] = test: Induction of DNA damage in mouse 4T1 cells assessed as decrease in PARP1 level at 5 uM by immunofluorescence based analysis; format: functional, cell-based
4T1 [4] = test: Synergistic induction of DNA damage in mouse 4T1 cells implanted in mouse assessed as increase in gamma-H2AX level at 25 mg/kg/day in presence of olaparib by Western blot analysis; format: functional, organism-based
[5] = molecular target: Programmed cell death 1 ligand 1 (Mus musculus) (UniProt Q9EP73); test: Induction of PD-L1 degradation in mouse B16-F10 cells assessed as increase in CTSB level at 0.313 to 10 uM incubated for 24 hrs by Western blot analysis; format: cell-based; details: dose 0.313-10 µM
Programmed cell death 1 ligand 1 (Mus musculus), sequence (Q9EP73 whole entry): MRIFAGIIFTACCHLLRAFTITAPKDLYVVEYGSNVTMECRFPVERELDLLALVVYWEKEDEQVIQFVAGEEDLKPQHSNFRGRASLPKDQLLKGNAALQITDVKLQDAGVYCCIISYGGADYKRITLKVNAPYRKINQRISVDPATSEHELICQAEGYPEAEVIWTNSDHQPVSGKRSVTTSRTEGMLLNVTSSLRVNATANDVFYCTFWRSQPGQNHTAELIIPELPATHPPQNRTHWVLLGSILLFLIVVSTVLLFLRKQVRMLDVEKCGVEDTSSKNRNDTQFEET

B16-F10 [6] = test: Induction of antitumor immunity in mouse B16-F10 cells implanted in male C57BL/6J mouse assessed as increase in T cell infiltration at 50 mg/kg, IG treated for 14 days consecutively by immunofluorescence based analysis; format: functional, organism-based; details: time 14.0 day
4T1 [7] = test: Induction of DNA damage in mouse 4T1 cells assessed as increase in gamma-H2AX level at 5 uM by immunofluorescence based analysis; format: functional, cell-based
[8] = AUMC (0 to t) in male Sprague-Dawley rat at 2 mg/kg, iv measured for 0.083 to 12 hrs by LC-MS/MS analysis; format: ADME, organism-based; details: in vivo, time 0.083-12 hrs
[9] = molecular target: T1, Histone deacetylase 3 (Mus musculus) (UniProt O88895); test: In vivo inhibition of HDAC3 in mouse B16-F10 cells implanted in male C57BL/6J mouse assessed as decrease in PD-L1 level at 50 mg/kg, IG treated for 14 days consecutively by immunofluorescence based analysis; format: functional, organism-based; details: time 14.0 day
T1 sequence (whole entry): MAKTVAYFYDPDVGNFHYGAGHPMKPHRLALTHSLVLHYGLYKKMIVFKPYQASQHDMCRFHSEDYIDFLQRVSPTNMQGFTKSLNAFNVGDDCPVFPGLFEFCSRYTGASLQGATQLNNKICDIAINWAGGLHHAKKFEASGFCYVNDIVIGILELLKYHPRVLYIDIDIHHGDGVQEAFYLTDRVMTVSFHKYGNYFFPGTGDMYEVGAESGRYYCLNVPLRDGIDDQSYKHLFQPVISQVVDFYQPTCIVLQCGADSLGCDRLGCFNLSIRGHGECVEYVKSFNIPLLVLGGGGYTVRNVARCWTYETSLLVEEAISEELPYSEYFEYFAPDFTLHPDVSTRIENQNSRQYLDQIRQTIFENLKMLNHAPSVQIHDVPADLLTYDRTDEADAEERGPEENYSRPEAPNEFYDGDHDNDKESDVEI

4T1 [10] = test: Antitumor activity against mouse 4T1 cells implanted in mouse at 50 mg/kg/day relative to control; format: functional; details: read-out: TGI
4T1 [11] = test: Synergistic induction of DNA damage in mouse 4T1 cells assessed as decrease in PARP1 level at 1 uM incubated for 24 hrs in presence of Olaparib by Western blot analysis; format: functional, cell-based
[12] = AUC (0 to infinity) in male Sprague-Dawley rat at 20 mg/kg, po measured for 0.083 to 12 hrs by LC-MS/MS analysis; format: ADME, organism-based; details: in vivo, time 0.083-12 hrs
[13] = molecular target: T1, Histone deacetylase 3 (Mus musculus); test: In vivo inhibition of HDAC3 in mouse B16-F10 cells implanted in male C57BL/6J mouse assessed as increase in Ac-H3 level at 50 mg/kg, IG treated for 14 days consecutively by Western blot analysis; format: functional, organism-based; details: time 14.0 day
4T1 [14] = test: Induction of DNA damage in mouse 4T1 cells implanted in mouse assessed as increase in gamma-H2AX level at 50 mg/kg/day by immunofluorescence based analysis; format: functional, organism-based
[15] = molecular target: T1, Histone deacetylase 3 (Mus musculus); test: In vivo inhibition of HDAC3 in mouse B16-F10 cells implanted in male C57BL/6J mouse assessed as increase in Ac-H3 level at 25 mg/kg, IG treated for 14 days consecutively in presence of NP-19 by immunofluorescence based analysis; format: functional, organism-based; details: time 14.0 day
4T1 [16] = test: Synergistic induction of DNA damage in mouse 4T1 cells implanted in mouse assessed as decrease in PARP level at 25 mg/kg/day in presence of olaparib by Western blot analysis; format: functional, organism-based
[17] = VRT (0 to t) in male Sprague-Dawley rat at 20 mg/kg, po measured for 0.083 to 12 hrs by LC-MS/MS analysis; format: ADME, organism-based; details: in vivo, time 0.083-12 hrs
[18] = MRT (0 to t) in male Sprague-Dawley rat at 20 mg/kg, po measured for 0.083 to 12 hrs by LC-MS/MS analysis; format: ADME, organism-based; details: in vivo, time 0.083-12 hrs
[19] = molecular target: T1, Histone deacetylase 3 (Mus musculus); test: In vivo inhibition of HDAC3 in mouse B16-F10 cells implanted in male C57BL/6J mouse assessed as decrease in PD-L1 level at 50 mg/kg, IG treated for 14 days consecutively by Western blot analysis; format: functional, organism-based; details: time 14.0 day
4T1 [20] = test: Induction of DNA damage in mouse 4T1 cells implanted in mouse assessed as increase in gamma-H2AX level at 50 mg/kg/day by Western blot analysis; format: functional, organism-based
[21] = Toxicity in male C57BL/6J mouse implanted with mouse B16-F10 cells assessed as histopathological damage in heart at 50 mg/kg, IG treated for 14 days consecutively by H and E staining based analysis; format: organism-based; details: in vivo, po, 336 h, time 14 day
[22] = Apparent volume of distribution in male Sprague-Dawley rat at 20 mg/kg, po measured for 0.083 to 12 hrs by LC-MS/MS analysis; format: ADME, organism-based; details: in vivo, time 0.083-12 hrs
4T1 [23] = test: Induction of DNA damage in mouse 4T1 cells implanted in mouse assessed as decrease in PARP level at 50 mg/kg/day by immunofluorescence based analysis; format: functional, organism-based
[24] = AUMC (0 to infinity) in male Sprague-Dawley rat at 2 mg/kg, iv measured for 0.083 to 12 hrs by LC-MS/MS analysis; format: ADME, organism-based; details: in vivo, time 0.083-12 hrs
[25] = Tmax in male Sprague-Dawley rat at 20 mg/kg, po measured for 0.083 to 12 hrs by LC-MS/MS analysis; format: ADME, organism-based; details: in vivo, time 0.083-12 hrs
[26] = AUMC (0 to infinity) in male Sprague-Dawley rat at 20 mg/kg, po measured for 0.083 to 12 hrs by LC-MS/MS analysis; format: ADME, organism-based; details: in vivo, time 0.083-12 hrs
4T1 [27] = test: Synergistic induction of DNA damage in mouse 4T1 cells implanted in mouse assessed as decrease in PARP level at 25 mg/kg/day in presence of olaparib by immunofluorescence based analysis; format: functional, organism-based
[28] = Toxicity in male C57BL/6J mouse implanted with mouse B16-F10 cells assessed as histopathological damage in liver at 25 mg/kg, IG treated for 14 days consecutively in presence of NP-19 by H and E staining based analysis; format: organism-based; details: in vivo, po, 336 h, time 14 day
4T1 [29] = test: Induction of DNA damage in mouse 4T1 cells assessed as decrease in PARP1 level at 2 uM incubated for 24 hrs by Western blot analysis; format: functional, cell-based

## CCCNNC(=O)CCCCCCNC(=O)c1cnc(-c2ccc(NC(=O)OC(C)(C)C)cc2)s1
B16-F10 [1]
  Activity: 28%
4T1 [2]
  Activity: Active
4T1 [3]
  Activity: Active
4T1 [4]
  Activity: Active
[5]
  Activity: Active
B16-F10 [6]
  Activity: Active
4T1 [7]
  Activity: Active
[8]
  AUMCt: 223.08 hr.hr.ug/L
[9]
  inhibition: Active
4T1 [10]
  inhibition in vivo at 50 mg/kg/day: 64%
4T1 [11]
  Activity: Active
[12]
  AUC(0-inf): 32.1 ng·h/mL
[13]
  inhibition: Active
4T1 [14]
  Activity: Active
[15]
  inhibition: Active
4T1 [16]
  Activity: Active
[17]
  VRT(t): 6.38 h²
[18]
  MRT last: 2.57 h
[19]
  inhibition: Active
4T1 [20]
  Activity: Active
[21]
  Activity: Non-toxic
[22]
  Vz: 2785.62 L/kg
4T1 [23]
  Activity: Active
[24]
  AUMC: 238.68 hr.hr.ug/L
[25]
  Tmax: 0.72 h
[26]
  AUMC: 97.74 hr.hr.ug/L
4T1 [27]
  Activity: Active
[28]
  Activity: Non-toxic
4T1 [29]
  Activity: Active
